According to patent US20100113540A1, “Azole and Thiazole Derivatives and Their Use” (ARGENTA DISCOVERY LIMITED, priority 2005, published 2010):
Counter-ions that a name gives are not always drawn.

The compounds below were run against T1, M3 muscarinic receptor (Homo sapiens, UniProt P20309) (assay: Muscarinic receptor radioligand binding assay ([3H]-NMS), M3). Settings: cell membranes expressing human M3 receptor.
T1 construct: purchased
Experimental: The inhibitory effects of compounds of the present invention at the M3 muscarinic receptor and (in the case of Example 77) the β2 adrenergic receptor, were determined by the following binding assays:
Radioligand binding studies utilising [^3H]-N-methyl scopolamine ([^3H]-NMS) and commercially available cell membranes expressing the human muscarinic receptors (M2 and M3) were used to assess the affinity of muscarinic antagonists for M2 and M3 receptors. Membranes in TRIS buffer were incubated in 96-well plates with [^3H]-NMS and M3 antagonist at various concentrations for 3 hours. Membranes and bound radioligand were then harvested by filtration and allowed to dry overnight. Scintillation fluid was then added and the bound radioligand counted using a Can berra Packard Topcount scintillation counter

T1 sequence (P20309 whole entry): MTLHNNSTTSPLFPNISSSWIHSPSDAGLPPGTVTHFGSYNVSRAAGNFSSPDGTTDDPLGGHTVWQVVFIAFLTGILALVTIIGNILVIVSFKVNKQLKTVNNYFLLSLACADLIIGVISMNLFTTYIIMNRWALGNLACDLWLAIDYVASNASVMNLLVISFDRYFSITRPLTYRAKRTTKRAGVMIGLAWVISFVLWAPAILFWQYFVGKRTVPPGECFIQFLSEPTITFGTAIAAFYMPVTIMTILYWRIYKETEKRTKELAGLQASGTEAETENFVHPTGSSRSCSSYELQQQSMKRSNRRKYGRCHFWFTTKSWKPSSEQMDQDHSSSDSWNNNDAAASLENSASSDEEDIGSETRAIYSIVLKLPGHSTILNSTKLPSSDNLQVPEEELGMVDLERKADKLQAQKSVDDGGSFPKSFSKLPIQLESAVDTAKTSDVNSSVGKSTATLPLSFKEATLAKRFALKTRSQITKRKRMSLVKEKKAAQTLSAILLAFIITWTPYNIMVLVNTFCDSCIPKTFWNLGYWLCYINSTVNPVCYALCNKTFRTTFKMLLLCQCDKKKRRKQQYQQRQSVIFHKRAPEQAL

Compound	Ki [nM]
CN(C)Cc1cnc([C@@](O)(c2ccccc2)C2CCCCC2)o1 (single isomer, unassigned) [Example 5]	> 10
CN(C)Cc1cnc([C@](O)(c2ccccc2)C2CCCCC2)o1 (single isomer, unassigned) [Example 6]	< 1
CN(CCCOc1ccccc1)Cc1cnc([C@@](O)(c2ccccc2)C2CCCCC2)o1 (single isomer, unassigned) [Example 14]	> 10
CN(C)CCc1cnc(C(O)(c2ccccc2)C2CCCCC2)o1 (single isomer, unassigned) [Example 66]	1 to 10
CN(C)CCc1cnc(C(O)(c2ccccc2)C2CCCCC2)o1 (single isomer, unassigned) [Example 67]	< 1
CN(C)Cc1cnc(C(O)(c2ccccc2)c2ccccc2)o1 [Example 1, (5-Dimethylaminomethyl-oxazol-2-yl)-diphenyv-methanol]	1 to 10
C[N+](C)(CCCOc1ccccc1)Cc1cnc(C(O)(c2ccccc2)c2ccccc2)o1 [Example 2, [2-(Hydroxy-diphenyl-methyl)-oxazol-5-ylmethyl]-dimethyl-(3-phenoxy-propyl)-ammonium formate]	< 1
CN(C)Cc1cnc(C(O)(c2ccccc2)C2CCCCC2)o1 (stereo not shown) [Example 4, Cyclohexyl-(5-dimethylaminomethyl-oxazol-2-yl)-phenyl-methanol]	< 1
OC(c1ccccc1)(c1ccccc1)c1ncc(CN2CCC(Oc3ccccc3)CC2)o1 [Example 26, [5-(4-Phenoxy-piperidin-1-ylmethyl)-oxazol-2-yl]-diphenyl-methanol]	> 10
CN(C)Cc1cnc(C(C)(c2ccccc2)c2ccccc2)o1 [Example 30, [2-(1,1-Diphenyl-ethyl)-oxazol-5-ylmethyl]-dimethyl-amine]	> 10
O[C@](c1ccccc1)(c1ncc(C[N+]2(CCCOc3ccccc3)CCCCC2)o1)C1CCCCC1 [Example 38, 1-[2-(Cyclohexyl-hydroxy-phenyl-methyl)-oxazol-5-ylmethyl]-1-(3-phenoxy-propyl)-piperidinium bromide]	1 to 10
O[C@@](c1ccccc1)(c1ncc(C[N+]2(CCCOc3ccccc3)CCCCC2)o1)C1CCCCC1 [Example 39, 1-[2-(Cyclohexyl-hydroxy-phenyl-methyl)-oxazol-5-ylmethyl]-1-(3-phenoxy-propyl)-piperidinium bromide]	> 10
O[C@](c1ccccc1)(c1ncc(C[N+]2(CCCOc3ccccc3)CCCC2)o1)C1CCCCC1 [Example 40, 1-[2-(Cyclohexyl-hydroxy-phenyl-methyl)-oxazol-5-ylmethyl]-1-(3-phenoxy-propyl)-pyrrolidinium bromide]	< 1
O[C@@](c1ccccc1)(c1ncc(C[N+]2(CCCOc3ccccc3)CCCC2)o1)C1CCCCC1 [Example 41, 1-[2-(Cyclohexyl-hydroxy-phenyl-methyl)-oxazol-5-ylmethyl]-1-(3-phenoxy-propyl)-pyrrolidinium bromide]	> 10
COCCCCCCCC[N+](C)(C)Cc1cnc([C@](O)(c2ccccc2)C2CCCCC2)o1 [Example 42, [2-((R)-Cyclohexyl-hydroxy-phenyl-methyl)-oxazol-5-ylmethyl]-(8-methoxy-octyl)-dimethyl-ammonium formate]	1 to 10
CN(CCCCCCCC[N+](C)(C)Cc1cnc([C@](O)(c2ccccc2)C2CCCCC2)o1)C(=O)OC(C)(C)C [Example 47, [8-(tert-butoxycarbonyl-methyl-amino)-octyl]-[2-((R)-cyclohexyl-hydroxy-phenyl-methyl)-oxazol-5-ylmethyl]-dimethyl-ammonium methanesulfonate]	1 to 10

Results, then the compound that gave them:

Ki [nM]	Compound
1 to 10	CN(CCCOc1ccccc1)Cc1cnc([C@](O)(c2ccccc2)C2CCCCC2)o1 (single isomer, unassigned) [Example 15]
> 10	CN(Cc1ccccc1)Cc1cnc([C@](O)(c2ccccc2)C2CCCC2)o1 (single isomer, unassigned) [Example 28, {5-[(Benzyl-methyl-amino)-methyl]-oxazol-2-yl}-cyclopentyl-phenyl-methanol]
> 10	CN(Cc1ccccc1)Cc1cnc([C@@](O)(c2ccccc2)C2CCCC2)o1 (single isomer, unassigned) [Example 29, {5-[(Benzyl-methyl-amino)-methyl]-oxazol-2-yl}-cyclopentyl-phenyl-methanol]
1 to 10	C[N+](C)(CCCOc1ccccc1)CCc1cnc(C(O)(c2ccccc2)C2CCCCC2)o1 (single isomer, unassigned) [Example 68, {2-[2-(Cyclohexyl-hydroxy-phenyl-methyl)-oxazol-5-yl]-ethyl}-dimethyl-(3-phenoxy-propyl)-ammonium bromide]
< 1	C[N+](C)(CCCOc1ccccc1)CCc1cnc(C(O)(c2ccccc2)C2CCCCC2)o1 (single isomer, unassigned) [Example 69, {2-[2-(Cyclohexyl-hydroxy-phenyl-methyl)-oxazol-5-yl]-ethyl}-dimethyl-(3-phenoxy-propyl)-ammonium bromide]
< 1	C[N+](C)(CCCOc1ccccc1)Cc1cnc([C@@](O)(c2ccccc2)C2CCCC2)o1 (stereo in doubt) [Example 36, [2-(Cyclopentyl-hydroxy-phenyl-methyl)-oxazol-5-ylmethyl]-dimethyl-(3-phenoxy-propyl)-ammonium bromide]
> 10	C[N+](C)(Cc1ccccc1)Cc1cnc([C@@](O)(c2ccccc2)C2CCCC2)o1 (stereo in doubt) [Example 60, Benzyl-[2-(cyclopentyl-hydroxy-phenyl-methyl)-oxazol-5-ylmethyl]-dimethyl-ammonium bromide]
1 to 10	C[N+](C)(CCCOc1ccccc1)Cc1cnc([C@@](O)(c2ccccc2)C2CCCCC2)o1 [Example 7, [2-((S)-Cyclohexyl-hydroxy-phenyl-methyl)-oxazol-5-ylmethyl]-dimethyl-(3-phenoxy-propyl)-ammonium bromide]
< 1	C[N+](C)(CCCOc1ccccc1)Cc1cnc([C@](O)(c2ccccc2)C2CCCCC2)o1 [Example 8, [2-((R)-Cyclohexyl-hydroxy-phenyl-methyl)-oxazol-5-ylmethyl]-dimethyl-(3-phenoxy-propyl)-ammonium bromide]
1 to 10	CN(CCCOc1ccccc1)Cc1cnc(C(O)(c2ccccc2)C2CCCCC2)o1 (stereo not shown) [Example 13, Cyclohexyl-(5-{[methyl-(3-phenoxy-propyl)-amino]-methyl}-oxazol-2-yl)-phenyl-methanol]
> 10	C[N+](C)(CCc1ccccc1)Cc1cnc([C@@](O)(c2ccccc2)C2CCCCC2)o1 [Example 31, [2-((S)-Cyclohexyl-hydroxy-phenyl-methyl)-oxazol-5-ylmethyl]-dimethyl-phenethyl-ammonium bromide]
< 1	C[N+](C)(CCc1ccccc1)Cc1cnc([C@](O)(c2ccccc2)C2CCCCC2)o1 [Example 32, [2-((R)-Cyclohexyl-hydroxy-phenyl-methyl)-oxazol-5-ylmethyl]-dimethyl-phenethyl-ammonium bromide]
< 1	CC(C)=CCC[N+](C)(C)Cc1cnc([C@](O)(c2ccccc2)C2CCCCC2)o1 [Example 33, [2-((R)-Cyclohexyl-hydroxy-phenyl-methyl)-oxazol-5-ylmethyl]-dimethyl-(4-methyl-pent-3-enyl)-ammonium bromide]
< 1	C[N+](C)(CCc1ccc2c(c1)CCO2)Cc1cnc([C@](O)(c2ccccc2)C2CCCCC2)o1 [Example 34, [2-((R)-Cyclohexyl-hydroxy-phenyl-methyl)-oxazol-5-ylmethyl]-[2-(2,3-dihydro-benzofuraan-5-yl)-ethyl]-dimethyl-ammonium bromide]
1 to 10	Cc1cccc(C[N+](C)(C)Cc2cnc([C@](O)(c3ccccc3)C3CCCCC3)o2)n1 [Example 35, [2-((R)-cyclohexyl-hydroxy-phenyl-methyl)-oxazol-5-ylmethyl]-dimethyl-(6-methyl-pyridin-2-ylmethyl)-ammonium formate]
< 1	C[N+](C)(CCCOc1ccccc1)Cc1cnc([C@](O)(c2ccccc2)C2CCCC2)o1 [Example 37, [2-(Cyclopentyl-hydroxy-phenyl-methyl)-oxazol-5-ylmethyl]-dimethyl-(3-phenoxy-propyl)-ammonium bromide]
< 1	C[N+](C)(CCCCOc1ccccc1)Cc1cnc([C@](O)(c2ccccc2)C2CCCCC2)o1 [Example 43, [2-((R)-Cyclohexyl-hydroxy-phenyl-methyl)-oxazol-5-ylmethyl]-dimethyl-(4-phenoxy-butyl)-ammonium bromide]
< 1	C[N+](C)(CCOCc1ccccc1)Cc1cnc([C@](O)(c2ccccc2)C2CCCCC2)o1 [Example 44, (2-Benzyloxy-ethyl)-[2-((R)-cyclohexyl-hydroxy-phenyl-methyl)-oxazol-5-ylmethyl]-dimethyl-ammonium bromide]
< 1	C[N+](C)(CCCCc1ccccc1)Cc1cnc([C@](O)(c2ccccc2)C2CCCCC2)o1 [Example 45, [2-((R)-Cyclohexyl-hydroxy-phenyl-methyl)-oxazol-5-ylmethyl]-dimethyl-(4-phenyl-butyl)-ammonium bromide]
< 1	C[N+](C)(CCCOc1ccc(F)cc1)Cc1cnc([C@](O)(c2ccccc2)C2CCCCC2)o1 [Example 46, [2-((R)-Cyclohexyl-hydroxy-phenyl-methyl)-oxazol-5-ylmethyl]-[3-(4-fluoro-phenoxy)-propyl]-dimethyl-ammonium bromide]
< 1	C[N+](C)(CCCc1ccccc1)Cc1cnc([C@](O)(c2ccccc2)C2CCCCC2)o1 [Example 48, [2-((R)-cyclohexyl-hydroxy-phenyl-methyl)-oxazol-5-ylmethyl]-dimethyl-(3-phenyl-propyl)-ammonium formate]
